In data set [1] the test system is Human Gingival Fibroblasts. As to the kind of experiment: PGE2 release from LPS exposed Human Gingival Fibroblasts. As to conditions: for PGE2 Response (with LPS): media only without LPS = 100. Type of data set: cell-based. The protocol: To further evaluate anti-inflammatory activity of IPMP in the oral cavity, a similar experiment was conducted on Human Gingival Fibroblasts. Cells were exposed to LPS as well as three non-irritating doses of IPMP (see example 1).
Another further experiment with IPMP and zinc chloride was conducted on Human Gingival Fibroblasts.

Data set [2] relates to LPS stimulated Raw 264.7 Macrophage cells.
Description: Anti-inflammatory activity was assessed on classical inflammation model LPS stimulated Raw 264.7 Macrophage cells. Inflammation response was quantified by measurements of the release of Prostaglandin E2 (PGE2) from the cells. Cells were exposed to E.coli lipopolysaccharide (LPS) with or without IPMP for 24 hours prior to assay. […] All values were normalized to cell viability of same sample, then to the inflammatory response of the cells without the addition of agents or LPS (100%).

For the compound `[Cl-].[Cl-].[Zn+2]` [Zinc Chloride, zinc chloride, reference compound], in data set [1] (55 μM Zinc Chloride), the “PGE2 Response (with LPS)” value came to 171 ± 2.9%.

As to `Cc1cc(O)ccc1C(C)C` [IPMP, 4-isopropyl-3-methylphenol], the “PGE2 Response (with LPS)” value in data set [1] (2 μM IPMP) was 146 ± 46.6%; in data set [1] (10 μM IPMP), 127 ± 21.6%; in data set [1] (50 μM IPMP) it was 103 ± 13.3%; in data set [2] (50 μM IPMP, E.coli LPS, 24 hours, normalized to cell viability and to cells without agents or LPS (100%)), 141 ± 6.4%. Moreover, in data set [1] (2, 10, 50 μM IPMP, with LPS), the “Suppression of LPS induced inflammation” value is “suppresses LPS induced inflammation in a dose-dependent manner”. In addition, the “Cell death / cell proliferation at nonirritative dose” value in data set [2] is on record as “neither cause cell death nor affect cell proliferation”. The “Irritation of cells by IPMP by itself” value in data set [2] is listed as “did not irritate the cells”. For the same compound, in data set [2] (50 μM IPMP, 24 hours, no LPS, normalized to cell viability and to cells without agents or LPS (100%)), the “PGE2 Response (without LPS)” value is recorded as 101 ± 0.0%.

The values above are taken from patent publication US20120034312A1, “4-ISOPROPYL-3-METHYLPHENOL FOR THE TREATMENT OF INFLAMMATION” (Glaxo Group Limited, priority 2009, published 2012).
